Experiments:
[1] = tested on: PC-3 cells; test: MTT assay, PC-3; conditions: Homo sapiens; for inhibition at 10 µM: PC-3, read-out: Inhibition rate (%, 10 μM) PC-3; for IC50: PC-3, read-out: IC50 (μM) PC-3
[2] = tested on: A549 cells; test: MTT assay, A549; conditions: Homo sapiens; for inhibition at 10 µM: A549, read-out: Inhibition rate (%, 10 μM) A549; for IC50: A549, read-out: IC50 (μM) A549
[3] = target: T1, EGFR^wt-TK (Homo sapiens, UniProt P00533); test: In vitro EGFR^wt-TK assay (ELISA with recombinant EGFR); type: biochemical; conditions: mean ± SD of three replicates; for inhibition at 1 µM: read-out: EGFR^wt-TK inhibition rate (%, 1 μM)
T1 construct: purchased Sino Biology Inc
Description: Recombinant EGFR was purchased from Sino Biology Inc. Antiphosphotyrosine mouse mAb was purchased from PTM Bio. The effects of compounds on the activity of wild type EGFR tyrosine kinase were determined by enzyme-linked immunosorbent assays (ELISAs) with recombinant EGFR according to reported methods.

[4] = tested on: SMMC-7721 cells; test: MTT assay, SMMC-7721; conditions: Homo sapiens; for inhibition at 10 µM: SMMC-7721, read-out: Inhibition rate (%, 10 μM) SMMC-7721; for IC50: SMMC-7721, read-out: IC50 (μM) SMMC-7721
[5] = tested on: A549 cells; test: Cell cycle analysis, PI flow cytometry; type: cell-based, human; conditions: for Percentage of cells in G0/G1 / Percentage of cells in S / Percentage of cells in G2/M: 48 h
[6] = tested on: EGFR; conditions: Figure 2; read-out: Reported EGFR inhibitors: IC50; cited from earlier work
[7] = tested on: A549 cells; test: Cell apoptosis analysis, Annexin V-FITC/PI flow cytometry; type: cell-based, human; conditions: A549, 5, 10, 20 μM, 48 h

T1 sequence (P00533 25-1210): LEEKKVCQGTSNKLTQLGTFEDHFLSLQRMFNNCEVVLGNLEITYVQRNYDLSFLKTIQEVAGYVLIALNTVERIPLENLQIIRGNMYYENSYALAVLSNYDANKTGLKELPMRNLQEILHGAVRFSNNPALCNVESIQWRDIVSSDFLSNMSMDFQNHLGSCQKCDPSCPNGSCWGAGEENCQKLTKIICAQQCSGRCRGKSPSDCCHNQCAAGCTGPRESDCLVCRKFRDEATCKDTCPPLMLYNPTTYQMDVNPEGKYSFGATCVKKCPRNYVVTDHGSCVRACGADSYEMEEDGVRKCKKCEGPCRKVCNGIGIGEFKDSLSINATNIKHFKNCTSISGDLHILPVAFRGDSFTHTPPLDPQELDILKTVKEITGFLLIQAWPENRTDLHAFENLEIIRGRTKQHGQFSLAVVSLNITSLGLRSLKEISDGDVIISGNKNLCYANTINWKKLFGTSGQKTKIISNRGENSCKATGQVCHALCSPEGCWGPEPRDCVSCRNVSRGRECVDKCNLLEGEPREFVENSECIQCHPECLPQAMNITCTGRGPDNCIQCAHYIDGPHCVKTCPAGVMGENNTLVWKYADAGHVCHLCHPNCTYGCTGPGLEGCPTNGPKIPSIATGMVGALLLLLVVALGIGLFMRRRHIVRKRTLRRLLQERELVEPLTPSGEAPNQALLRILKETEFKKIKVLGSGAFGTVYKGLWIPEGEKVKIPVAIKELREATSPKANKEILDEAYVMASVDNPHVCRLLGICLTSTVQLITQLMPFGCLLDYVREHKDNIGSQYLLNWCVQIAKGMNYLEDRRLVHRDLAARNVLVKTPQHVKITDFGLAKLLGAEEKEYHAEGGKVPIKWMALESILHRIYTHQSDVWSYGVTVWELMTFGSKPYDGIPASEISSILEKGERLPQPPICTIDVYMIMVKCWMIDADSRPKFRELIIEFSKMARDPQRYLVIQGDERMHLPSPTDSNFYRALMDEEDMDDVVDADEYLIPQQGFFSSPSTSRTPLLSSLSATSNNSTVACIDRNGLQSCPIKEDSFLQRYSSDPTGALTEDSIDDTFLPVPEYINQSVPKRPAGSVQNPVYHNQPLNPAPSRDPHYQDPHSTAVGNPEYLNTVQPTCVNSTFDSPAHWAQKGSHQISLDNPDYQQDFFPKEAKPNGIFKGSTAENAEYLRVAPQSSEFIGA

Structure (SMILES) | inhibition at 10 µM [1] | melting point | inhibition at 10 µM [2] | inhibition at 1 µM [3] | inhibition at 10 µM [4] | further results
COc1ccc(/N=C/c2ccc(OCc3nc4ccccc4c(=O)n3C)cc2)cc1 [5e, (E)-2-((4-(((4-methoxyphenyl)imino)methyl)phenoxy)methyl)-3-methylquinazolin-4(3H)-one] | 40.2 ± 3.57% | 180 to 182 °C | 25.9 ± 7.46% | 53.6 ± 1.25% | 20.1 ± 9.11% | –
Cn1c(COc2ccc(/C=N/c3ccccc3F)cc2)nc2ccccc2c1=O [5f, (E)-2-((4-(((2-fluorophenyl)imino)methyl)phenoxy)methyl)-3-methylquinazolin-4 (3H)-one] | 5.46 ± 0.28% | 143 to 145 °C | 16.3 ± 1.43% | 1.31 ± 3.64% | 2.65 ± 1.81% | –
Cn1c(COc2ccc(/C=N/c3cccc(Br)c3)cc2)nc2ccccc2c1=O [5j, (E)-2-((4-(((3-bromophenyl)imino)methyl)phenoxy)methyl)-3-methylquinazolin-4(3H)-one] | 17.9 ± 6.12% | 176 to 178 °C | 18 ± 6.69% | 53.3 ± 1.58% | 18.6 ± 1.51% | –
Cc1ccccc1/N=C/c1ccc(OCc2nc3ccccc3c(=O)n2C)cc1 [5b, (E)-3-methyl-2-((4-((o-tolylimino)methyl)phenoxy)methyl)quinazolin-4(3H)-one] | 23.9 ± 8.59% | 162 to 164 °C | 14.5 ± 4.09% | 2.57 ± 1.25% | 24.3 ± 1.7% | –
Cn1c(COc2ccc(/C=N/c3cccc(Cl)c3)cc2)nc2ccccc2c1=O [5i, (E)-2-((4-(((3-chlorophenyl)imino)methyl)phenoxy)methyl)-3-methylquinazolin-4(3H)-one] | 9.6 ± 2.69% | 179 to 181 °C | 23.3 ± 7.52% | 1.04 ± 0.91% | 13.1 ± 2.92% | –
Cn1c(COc2ccc(/C=N/c3ccc(Cl)c(C(F)(F)F)c3)cc2)nc2ccccc2c1=O [5p, (E)-2-((4-(((4-chloro-3-(trifluoromethyl)phenyl)imino)methyl)phenoxy)methyl)-3-methylquinazolin-4(3H)-one] | 22.6 ± 1.28% | 163 to 164 °C | 15.6 ± 2.66% | 4.32 ± 1.92% | 17.5 ± 2.67% | –
COc1cc2ncnc(Nc3ccc(F)c(Cl)c3)c2cc1OCCCN1CCOCC1 [Gefitinib, reference compound] | – | – | – | – | – | Percentage of cells in G0/G1 ([5]; A549, 5 μM): 58.50%; Percentage of cells in S ([5]; A549, 5 μM): 12.03%; Percentage of cells in G0/G1 ([5]; A549, 10 μM): 62.15%; Percentage of cells in S ([5]; A549, 10 μM): 13.56%
COc1ccc(-c2nnc(-n3c(-c4ccccc4)nc4cc(Cl)ccc4c3=O)s2)cc1 [I] | – | – | – | – | – | IC50 [6]: 0.32 µM
Cn1c(COc2ccc(/C=N/c3cc(F)cc(F)c3)cc2)nc2ccccc2c1=O [5l, (E)-2-((4-(((3,5-difluorophenyl)imino)methyl)phenoxy)methyl)-3-methylquinazolin-4(3H)-one] | 54.3 ± 7.59% | 220 to 221 °C | 31.2 ± 2.49% | 61.9 ± 1.51% | 41 ± 2.63% | IC50 [1]: 13.3 ± 1.12 µM; IC50 [2]: 7.22 ± 3.51 µM; IC50 [3]: 0.54 ± 0.031 µM; IC50 [4]: 6.04 ± 0.55 µM
Cn1c(COc2ccc(/C=N/c3ccc(F)cc3)cc2)nc2ccccc2c1=O [5h, (E)-2-((4-(((4-fluorophenyl)imino)methyl)phenoxy)methyl)-3-methylquinazolin-4(3H)-one] | 14.8 ± 2.3% | 200 to 202 °C | 14.8 ± 5.06% | 56.2 ± 2.16% | 22.9 ± 1.66% | –
Cn1c(COc2ccc(/C=N/c3c(F)cccc3F)cc2)nc2ccccc2c1=O [5m, (E)-2-((4-(((2,6-difluorophenyl)imino)methyl)phenoxy)methyl)-3-methylquinazolin-4(3H)-one] | 26.8 ± 0.59% | 181 to 183 °C | 15.2 ± 3.61% | 25.8 ± 1.92% | 15.1 ± 5.79% | –
Cn1c(COc2ccc(/C=N/c3ccc(F)cc3F)cc2)nc2ccccc2c1=O [5n, (E)-2-((4-(((2,4-difluorophenyl)imino)methyl)phenoxy)methyl)-3-methylquinazolin-4(3H)-one] | 25.8 ± 4.84% | 181 to 183 °C | 33.3 ± 3.63% | 48.4 ± 0.35% | 11.5 ± 2.87% | –
Cc1ccc(/N=C/c2ccc(OCc3nc4ccccc4c(=O)n3C)cc2)cc1 [5c, (E)-3-methyl-2-((4-((p-tolylimino)methyl)phenoxy)methyl)quinazolin-4(3H)-one] | 7.46 ± 0.52% | 182 to 184 °C | 12.1 ± 2% | 50.8 ± 3.29% | 31.8 ± 9.91% | –
Cn1c(COc2ccc(/C=N/c3ccc(F)c(Cl)c3)cc2)nc2ccccc2c1=O [5o, (E)-2-((4-(((3-chloro-4-fluorophenyl)imino)methyl)phenoxy)methyl)-3-methyl quinazolin-4(3H)-one] | 13.9 ± 0.92% | 188 to 189 °C | 18.7 ± 9.78% | 16.7 ± 2.99% | 24.5 ± 1.37% | –
Cn1c(COc2ccc(/C=N/c3ccccc3)cc2)nc2ccccc2c1=O [5a, (E)-3-methyl-2-((4-((phenylimino)methyl)phenoxy)methyl)quinazolin-4(3H)-one] | 7.36 ± 2.38% | 150 to 152 °C | 15.4 ± 1.52% | 1.91 ± 0.91% | 15.1 ± 5.91% | –
O=c1[nH]cc(F)c(=O)[nH]1 [5-Fluorouracil, reference compound] | 29.3 ± 1.24% | – | 40.4 ± 1.15% | 63.4 ± 1.69% | 29.1 ± 2.75% | IC50 [1]: 22.5 ± 0.74 µM; IC50 [2]: 1.53 ± 0.72 µM; IC50 [3]: 0.14 ± 0.011 µM; IC50 [4]: 11.4 ± 1.95 µM
Cn1c(COc2ccc(/C=N/c3cccc(F)c3)cc2)nc2ccccc2c1=O [5g, (E)-2-((4-(((3-fluorophenyl)imino)methyl)phenoxy)methyl)-3-methylquinazolin-4(3H)-one] | 4.76 ± 0.51% | 168 to 170 °C | 15.6 ± 2.56% | 65 ± 1.51% | 35.6 ± 1.27% | IC50 [1]: 30.1 ± 1.86 µM; IC50 [2]: 19.7 ± 2.34 µM; IC50 [3]: 0.047 ± 0.004 µM; IC50 [4]: 35.9 ± 5.85 µM
COc1ccccc1/N=C/c1ccc(OCc2nc3ccccc3c(=O)n2C)cc1 [5d, (E)-2-((4-(((2-methoxyphenyl)imino)methyl)phenoxy)methyl)-3-methylquinazolin-4(3H)-one] | 38.2 ± 1.4% | 141 to 143 °C | 20.8 ± 4.81% | 38.7 ± 1.83% | 2.78 ± 4.23% | –
N[C@@H](Cc1ccccc1)C(=O)Nn1c(-c2ccc(F)cc2)nc2ccc(F)cc2c1=O [II] | – | – | – | – | – | IC50 [6]: 0.164 µM
Cn1c(COc2ccc(/C=N/c3ccc(F)c(F)c3)cc2)nc2ccccc2c1=O [5k, (E)-2-((4-(((3,4-difluorophenyl)imino)methyl)phenoxy)methyl)-3-methylquinazolin-4(3H)-one] | 57.5 ± 2.77% | 152 to 154 °C | 27 ± 1.63% | 63.4 ± 1.83% | 34.9 ± 4.72% | Induction of apoptosis in A549 cells [7]: induces cellular apoptosis in a concentration-dependent way; IC50 [1]: 17.1 ± 3.61 µM; Percentage of cells in G0/G1 ([5]; A549, 5 μM): 61.23%; Percentage of cells in G2/M ([5]; A549, 5 μM): 25.31%; Percentage of cells in S ([5]; A549, 5 μM): 13.46%; Percentage of cells in G0/G1 ([5]; A549, 10 μM): 62.42%; Percentage of cells in G2/M ([5]; A549, 10 μM): 23.10%; Percentage of cells in S ([5]; A549, 10 μM): 14.48%; Cell cycle arrest of A549 cells ([5]; A549, 48 h): arrested in the G2/M phase; IC50 [2]: 12.3 ± 4.12 µM; IC50 [3]: 0.01 ± 0.001 µM; IC50 [4]: 15.7 ± 1.64 µM
